One data set relates to S. aureus (SAUR 9213). Briefly: MIC, agar dilution. The conditions noted are these: Staphylococcus aureus, S. aureus 9213, overnight at 35° C. The class given is cell-based. Here is the method:
(§1) The in vitro MICs of test compounds were determined by a standard agar dilution method. A stock drug solution of each analog was prepared in the preferred solvent, usually DMSO:H2O (1:3). Serial 2-fold dilutions of each sample are made using 1.0 ml aliquots of sterile distilled water. To each 1.0 ml aliquot of drug was added 9 ml of molten Mueller Hinton agar medium. The drug-supplemented agar was mixed, poured into 15×100 mm petri dishes, and allowed to solidify and dry prior to inoculation.
(§2) Vials of each of the test organisms are maintained frozen in the vapor phase of a liquid nitrogen freezer. Test cultures are grown overnight at 35° C. on the medium appropriate for the organism. Colonies are harvested with a sterile swab, and cell suspensions are prepared in Trypticase Soy broth (TSB) to equal the turbidity of a 0.5 McFarland standard. A 1:20 dilution of each suspension was made in TSB. The plates containing the drug supplemented agar are inoculated with a 0.001 ml drop of the cell suspension using a Steers replicator, yielding approximately 10^4 to 10^5 cells per spot. The plates are incubated overnight at 35° C.
(§3) Following incubation the Minimum Inhibitory Concentration (MIC μg/ml), the lowest concentration of drug that inhibits visible growth of the organism, was read and recorded.

The subject of data set [1] is M. catarrhalis (MCAT 30607). Briefly: MIC, agar dilution. The class given is cell-based. The conditions noted are these: Moraxella catarrhalis, M. catarrhalis 30607, overnight at 35° C. The method, then:
as §1, §2, §3
(In general: In agar dilution the substance is mixed into plates at graded concentrations.)

The subject of a further data set is S. aureus (SAUR 31583). The data set is described as follows: MIC, agar dilution. The format is cell-based. The settings on record: Staphylococcus aureus, S. aureus 31583, overnight at 35° C. Here is the method: as §1, §2, §3
The subject of data set [2] is S. epidermidis (SEPI 30593). Briefly: MIC, agar dilution. The class given is cell-based. The settings on record: Staphylococcus epidermidis, S. epidermidis 30593, overnight at 35° C. The method, then:
as §1, §2, §3

The test system of the next data set is E. Faecalis (EFAE 9217). The data set is described as follows: MIC, agar dilution. The format is cell-based. The conditions noted are these: Enterococcus faecalis, E. Faecalis 9217, overnight at 35° C. The method, then:
as §1, §2, §3

Data set [3] has as its system H. influenzae (HINF 31810). The data set is described as follows: MIC, agar dilution. The format is cell-based. The settings on record: Haemophilus influenzae, H. influenzae 31810, overnight at 35° C. The method, then:
as §1, §2, §3

Another data set concerns S. pyogenes (SPYO 152). The data set is described as follows: MIC, agar dilution. The class given is cell-based. The conditions noted are these: Streptococcus pyogenes, S. pyogenes 152, overnight at 35° C. Here is the method:
as §1, §2, §3

Data set [4] deals with H. influenzae (HINF 30063). The data set is described as follows: MIC, agar dilution. The format is cell-based. The settings on record: Haemophilus influenzae, H. influenzae 30063, overnight at 35° C. The method, then: as §1, §2, §3
A further data set deals with S. pneumonia (SPNE 9912). Briefly: MIC, agar dilution. The class given is cell-based. The conditions noted are these: S. pneumonia 9912, overnight at 35° C. Here is the method:
as §1, §2, §3

A further data set deals with E. Faecium (EFAE 12712). The data set is described as follows: MIC, agar dilution. The class given is cell-based. The settings on record: Enterococcus faecium, E. Faecium 12712, overnight at 35° C. Here is the method: as §1, §2, §3

SMILES strings stand for the structures. Converted amounts (≈) assume the structure as drawn.

For orientation: melting point means the temperature, or range, at which the solid turns liquid. Compound `CN(C)Cc1ccc(C(=O)CCC(=O)N2CCN(c3ccc(N4C[C@H](CNC(=S)C5CC5)OC4=O)cc3F)CC2)cc1` [Example 14, N-[((5S)-3-{4-[4-(4-{4-[(Dimethylamino)methyl]phenyl}-4-oxobutanoyl)-1-piperazinyl]-3-fluorophenyl}-2-oxo-1,3-oxazolidin-5-yl)methyl]cyclopropanecarbothioamide] registered a melting point of 174 to 175 °C.

With `CC(=O)NC[C@H]1CN(c2ccc(N3CCN(C(=O)CCCc4ccc(NC(=O)CN)cc4)CC3)c(F)c2)C(=O)O1` [Example 60, N-(4-{4-[4-(4-{(5S)-5-[(Acetylamino)methyl]-2-oxo-1,3-oxazolidin-3-yl}-2-fluorophenyl)-1-piperazinyl]-4-oxobutyl}phenyl)-2-aminoacetamide], the melting point is 199 to 200 °C (dec.).

`CCC(=S)NC[C@H]1CN(c2ccc(N3CCN(C(=O)COc4ccc(CN5CCOCC5)cc4)CC3)c(F)c2)C(=O)O1` [Compound 17]: the MIC in the data set on S. aureus (SAUR 9213) came out at 8 µg/mL (≈ 13.3 µM); in [1] it was 4 µg/mL (≈ 6.67 µM); in the data set with S. aureus (SAUR 31583) it was 32 µg/mL (≈ 53.4 µM); in data set [2] it was 2 µg/mL (≈ 3.33 µM); with E. Faecalis (EFAE 9217) it was 1 µg/mL (≈ 1.67 µM); in [3] it was 32 µg/mL (≈ 53.4 µM). In addition, the MIC is 0.5 µg/mL (≈ 0.834 µM) against S. pyogenes (SPYO 152), 64 µg/mL (≈ 107 µM) in data set [4], 0.25 µg/mL (≈ 0.417 µM) in the data set on S. pneumonia (SPNE 9912) and 2 µg/mL (≈ 3.33 µM) in the data set with E. Faecium (EFAE 12712).

Regarding `CCN(CC)Cc1ccc(OCC(=O)N2CCN(c3ccc(N4C[C@H](CNC(=S)C5CC5)OC4=O)cc3F)CC2)cc1` [Compound 10], the MIC with S. aureus (SAUR 9213) was determined as 2 µg/mL (≈ 3.35 µM); in data set [1], 2 µg/mL (≈ 3.35 µM); in the data set on S. aureus (SAUR 31583) it was 8 µg/mL (≈ 13.4 µM); in data set [2], 1 µg/mL (≈ 1.67 µM); with E. Faecalis (EFAE 9217), 2 µg/mL (≈ 3.35 µM); in [3], 32 µg/mL (≈ 53.5 µM). Also, the MIC against S. pyogenes (SPYO 152) came out at 0.25 µg/mL (≈ 0.418 µM); in data set [4], 32 µg/mL (≈ 53.5 µM); with S. pneumonia (SPNE 9912) it was 0.25 µg/mL (≈ 0.418 µM); with E. Faecium (EFAE 12712), 2 µg/mL (≈ 3.35 µM).

Take `CC(=O)NC[C@H]1CN(c2ccc(N3CCN(C(=O)CCC(=O)c4ccc(CN(C)C)cc4)CC3)c(F)c2)C(=O)O1` [Example 15, N-[((5S)-3-{4-[4-(4-{4-[(Dimethylamino)methyl]phenyl}-4-oxobutanoyl)-1-piperazinyl]-3-fluorophenyl}-2-oxo-1,3-oxazolidin-5-yl)methyl]acetamide]: the melting point lay in the range of 190 to 192 °C.

For the compound `CC(=O)NC[C@H]1CN(c2ccc(N3CCN(C(=O)CN4C(=O)c5ccc(N)cc5C4=O)CC3)c(F)c2)C(=O)O1` [Example 70, N-{[(5S)-3-(4-{4-[(5-Amino-1,3-dioxo-1,3-dihydro-2H-isoindol-2-yl)acetyl]piperazin-1-yl}-3-fluorophenyl)-2-oxo-1,3-oxazolidin-5-yl]methyl}acetamide], the melting point is 241 to 243 °C (dec.).

For `CC(=O)NC[C@H]1CN(c2ccc(N3CCN(C(=O)CCC(=O)c4ccc(CNC(=O)CN(C)C)cc4)CC3)c(F)c2)C(=O)O1` [Example 22, N^1-(4-{4-[4-(4-{(5S)-5-[(Acetylamino)methyl]-2-oxo-1,3-oxazolidin-3-yl}-2-fluorophenyl)piperazin-1-yl]-4-oxobutanoyl}benzyl)-N^2,N^2-dimethylglycinamide], the melting point lay in the range of 160 to 160.5 °C.

Turning to `CCC(=S)NC[C@H]1CN(c2ccc(N3CCN(C(=O)COc4ccc(CN(CC)CC)cc4)CC3)c(F)c2)C(=O)O1` [Example 1, N-[((5S)-3-{4-[4-({4-[(Diethylamino)methyl]phenoxy}acetyl)piperazin-1-yl]-3-fluorophenyl}-2-oxo-1,3-oxazolidin-5-yl)methyl]propanethioamide], the melting point amounted to 98 °C.

On to `CCC(=S)NC[C@H]1CN(c2ccc(N3CCN(C(=O)COc4ccc(CN5CCOCC5)cc4)CC3)c(F)c2)C(=O)O1` [Example 7, N-({(5S)-3-[3-Fluoro-4-(4-{[4-(morpholin-4-ylmethyl)phenoxy]acetyl}piperazin-1-yl)phenyl]-2-oxo-1,3-oxazolidin-5-yl}methyl)propanethioamide], for which the melting point lay in the range of 159 to 160 °C.

On to `CC(=O)NC[C@H]1CN(c2ccc(N3CCN(C(=O)CCC(=O)c4ccc(Cl)cc4)CC3)c(F)c2)C(=O)O1` [Example 49, N-{[(5S)-3-(4-{4-[4-(4-Chlorophenyl)-4-oxobutanoyl]-1-piperazinyl}-3-fluorophenyl)-2-oxo-1,3-oxazolidin-5-yl]methyl}acetamide], for which the melting point lay within 208 to 209 °C.

For `CN1CCN(Cc2ccc(OCC(=O)N3CCN(c4ccc(N5C[C@H](CNC(=S)C6CC6)OC5=O)cc4F)CC3)cc2)CC1` [Compound 23], the MIC with S. aureus (SAUR 9213) is 16 µg/mL (≈ 25.6 µM); in data set [1], 32 µg/mL (≈ 51.2 µM); in the data set with S. aureus (SAUR 31583) it was above 64 µg/mL; in data set [2] it was 8 µg/mL (≈ 12.8 µM); in data set [3], 64 µg/mL (≈ 102 µM); against S. pyogenes (SPYO 152), 0.5 µg/mL (≈ 0.8 µM). In addition, the MIC in [4] was found to be 64 µg/mL (≈ 102 µM); against S. pneumonia (SPNE 9912) it was 0.5 µg/mL (≈ 0.8 µM); in the data set on E. Faecium (EFAE 12712), 8 µg/mL (≈ 12.8 µM).

`CCC(=S)NC[C@H]1CN(c2ccc(N3CCN(C(=O)CCC(=O)c4ccc(CN5CCOCC5)cc4)CC3)c(F)c2)C(=O)O1` [Example 16, N-({(5S)-3-[3-Fluoro-4-(4-{4-[4-(4-morpholinylmethyl)phenyl]-4-oxobutanoyl}-1-piperazinyl)phenyl]-2-oxo-1,3-oxazolidin-5-yl}methyl)propanethioamide] showed a melting point of 160 °C.

Turning to `COc1ccc(CCCC(=O)N2CCN(c3ccc(N4C[C@H](CNC(C)=O)OC4=O)cc3F)CC2)cc1` [Example 41, N-{[(5S)-3-(3-Fluoro-4-{4-[4-(4-methoxyphenyl)butanoyl]piperazine-1-yl}phenyl)-2-oxo-1,3-oxazolidin-5-yl]methyl}acetamide], the melting point lay within 164 to 165 °C.

Consider `CCC(=S)NC[C@H]1CN(c2ccc(N3CCN(C(=O)COc4ccc(CN5CCN(C)CC5)cc4)CC3)c(F)c2)C(=O)O1` [Compound 22], for which the MIC is 8 µg/mL (≈ 13.1 µM) in the data set with S. aureus (SAUR 9213); 2 µg/mL (≈ 3.26 µM) in data set [1]; 32 µg/mL (≈ 52.2 µM) against S. aureus (SAUR 31583); 2 µg/mL (≈ 3.26 µM) in [2]; 16 µg/mL (≈ 26.1 µM) in [3]; 0.25 µg/mL (≈ 0.408 µM) in the data set on S. pyogenes (SPYO 152). In addition, the MIC in [4] was 32 µg/mL (≈ 52.2 µM); against S. pneumonia (SPNE 9912) it was 0.125 µg/mL (≈ 0.204 µM); in the data set on E. Faecium (EFAE 12712), 2 µg/mL (≈ 3.26 µM).

As to `CC(=O)NC[C@H]1CN(c2ccc(N3CCN(C(=O)CCC(=O)c4ccc(Br)cc4)CC3)c(F)c2)C(=O)O1` [Example 44, N-{[(5S)-3-(4-{4-[4-(4-Bromophenyl)-4-oxobutanoyl]-1-piperazinyl}-3-fluorophenyl)-2-oxo-1,3-oxazolidin-5-yl]methyl}acetamide], the melting point lay in the range of 197 to 198 °C.

As to `CC(=S)NC[C@H]1CN(c2ccc(N3CCN(C(=O)CCC(=O)c4ccc(Cl)cc4)CC3)c(F)c2)C(=O)O1` [Example 50, N-{[(5S)-3-(4-{4-[4-(4-chlorophenyl)-4-oxobutanoyl]-1-piperazinyl}-3-fluorophenyl)-2-oxo-1,3-oxazolidin-5-yl]methyl}ethanethioamide], the melting point is 215 to 216 °C (dec.).

The compound `CCC(=S)NC[C@H]1CN(c2ccc(N3CCN(C(=O)COc4ccc(CN(C)C)cc4)CC3)c(F)c2)C(=O)O1` [Example 4, N-[((5S)-3{4-[4-({4-[(Dimethylamino)methyl]phenoxy}acetyl)piperazin-1-yl]-3-fluorophenyl}-2-oxo-1,3-oxazolidin-5-yl)methyl]propanethioamide] registered a melting point of 163 to 164 °C.

Regarding `CC(=O)NC[C@H]1CN(c2ccc(N3CCN(C(=O)COc4ccc(CN5CCN(C)CC5)cc4)CC3)c(F)c2)C(=O)O1` [Compound 24], the MIC came to 4 µg/mL (≈ 6.86 µM) in the data set on S. aureus (SAUR 9213); 2 µg/mL (≈ 3.43 µM) in [1]; 16 µg/mL (≈ 27.5 µM) with S. aureus (SAUR 31583); 2 µg/mL (≈ 3.43 µM) in [2]; 16 µg/mL (≈ 27.5 µM) in data set [3]; 0.25 µg/mL (≈ 0.429 µM) with S. pyogenes (SPYO 152). Further, the MIC in [4] came to 32 µg/mL (≈ 54.9 µM); against S. pneumonia (SPNE 9912) it was 0.125 µg/mL (≈ 0.215 µM); with E. Faecium (EFAE 12712) it was 2 µg/mL (≈ 3.43 µM).

On to `CC(=O)NC[C@H]1CN(c2ccc(N3CCN(C(=O)CCCc4ccc(O)cc4)CC3)c(F)c2)C(=O)O1` [Example 42, N-{[(5S)-3-(3-Fluoro-4-{4-[4-(4-hydroxyphenyl)butanoyl]piperazin-1-yl}phenyl)-2-oxo-1,3-oxazolidin-5-yl]methyl}acetamide], for which the melting point is 119 to 120 °C (dec.).

For the origin of these results see patent publication US7141570B2, “N-aryl-2-oxazolidinone-5-carboxamides and their derivatives” (Pharmacia & Upjohn Company, priority 2002, dated 2006).
